Assay [1] deals with Maackia amurensis. The assay can be described thus: Binding affinity to biotin-labeled Maackia amurensis agglutinin in pH 7.4 Tris buffer by fluorescence microarray method.
The species named for assay [2] is Homo sapiens. Put plainly: Binding affinity to biotin-labeled human recombinant laminin-2 at 10 ug/ml in pH 7.4 Tris buffer by fluorescence microarray method.
The target in assay [3] is Lactotransferrin (Homo sapiens) (UniProt P02788). Put plainly: Binding affinity to biotin-labeled lactoferrin (unknown origin) at 10 ug/ml in pH 5.6 MES buffer by fluorescence microarray method.
Lactotransferrin (Homo sapiens), sequence (P02788 whole entry): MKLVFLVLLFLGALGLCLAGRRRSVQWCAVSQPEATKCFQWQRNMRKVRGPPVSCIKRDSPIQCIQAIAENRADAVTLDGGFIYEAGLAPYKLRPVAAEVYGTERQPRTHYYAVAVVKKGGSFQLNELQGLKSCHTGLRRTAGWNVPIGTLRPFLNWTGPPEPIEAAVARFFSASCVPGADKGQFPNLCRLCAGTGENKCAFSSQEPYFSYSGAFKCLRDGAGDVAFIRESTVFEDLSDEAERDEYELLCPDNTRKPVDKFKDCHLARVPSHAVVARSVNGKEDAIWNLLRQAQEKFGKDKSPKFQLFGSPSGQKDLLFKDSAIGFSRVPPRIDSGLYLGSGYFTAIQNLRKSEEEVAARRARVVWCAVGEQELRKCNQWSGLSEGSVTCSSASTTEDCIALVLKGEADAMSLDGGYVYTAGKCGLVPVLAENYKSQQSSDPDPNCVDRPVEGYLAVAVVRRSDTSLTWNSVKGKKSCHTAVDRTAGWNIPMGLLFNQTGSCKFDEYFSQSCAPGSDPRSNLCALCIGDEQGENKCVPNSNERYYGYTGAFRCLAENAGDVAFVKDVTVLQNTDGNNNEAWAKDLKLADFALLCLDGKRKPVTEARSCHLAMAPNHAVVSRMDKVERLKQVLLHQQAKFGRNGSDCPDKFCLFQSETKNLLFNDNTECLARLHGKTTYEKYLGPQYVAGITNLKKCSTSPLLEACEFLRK
For assay [4] the target is unchanged. Put plainly: Binding affinity to biotin-labeled lactoferrin (unknown origin) at 10 ug/ml in pH 7.4 Tris buffer by fluorescence microarray method.
In assay [5] the test system is Sambucus racemosa subsp. sieboldiana. Put plainly: Binding affinity to biotin-labeled Sambucus sieboldiana agglutinin in pH 7.4 Tris buffer by fluorescence microarray method.
Assay [6] has as its system Erythrina crista-galli. The assay can be described thus: Binding affinity to biotin-labeled Erythrina crista-galli agglutinin in pH 7.4 Tris buffer by fluorescence microarray method.
Assay [7] has as its system Datura stramonium. The assay can be described thus: Binding affinity to biotin-labeled Datura stramonium agglutinin in pH 7.4 Tris buffer by fluorescence microarray method.
The target of assay [8] is Laminin subunit alpha-1 (Homo sapiens) (UniProt P25391). The assay can be described thus: Binding affinity to biotin-labeled human recombinant laminin-1 at 10 ug/ml in pH 7.4 Tris buffer by fluorescence microarray method.
Laminin subunit alpha-1 (Homo sapiens), sequence (P25391 whole entry): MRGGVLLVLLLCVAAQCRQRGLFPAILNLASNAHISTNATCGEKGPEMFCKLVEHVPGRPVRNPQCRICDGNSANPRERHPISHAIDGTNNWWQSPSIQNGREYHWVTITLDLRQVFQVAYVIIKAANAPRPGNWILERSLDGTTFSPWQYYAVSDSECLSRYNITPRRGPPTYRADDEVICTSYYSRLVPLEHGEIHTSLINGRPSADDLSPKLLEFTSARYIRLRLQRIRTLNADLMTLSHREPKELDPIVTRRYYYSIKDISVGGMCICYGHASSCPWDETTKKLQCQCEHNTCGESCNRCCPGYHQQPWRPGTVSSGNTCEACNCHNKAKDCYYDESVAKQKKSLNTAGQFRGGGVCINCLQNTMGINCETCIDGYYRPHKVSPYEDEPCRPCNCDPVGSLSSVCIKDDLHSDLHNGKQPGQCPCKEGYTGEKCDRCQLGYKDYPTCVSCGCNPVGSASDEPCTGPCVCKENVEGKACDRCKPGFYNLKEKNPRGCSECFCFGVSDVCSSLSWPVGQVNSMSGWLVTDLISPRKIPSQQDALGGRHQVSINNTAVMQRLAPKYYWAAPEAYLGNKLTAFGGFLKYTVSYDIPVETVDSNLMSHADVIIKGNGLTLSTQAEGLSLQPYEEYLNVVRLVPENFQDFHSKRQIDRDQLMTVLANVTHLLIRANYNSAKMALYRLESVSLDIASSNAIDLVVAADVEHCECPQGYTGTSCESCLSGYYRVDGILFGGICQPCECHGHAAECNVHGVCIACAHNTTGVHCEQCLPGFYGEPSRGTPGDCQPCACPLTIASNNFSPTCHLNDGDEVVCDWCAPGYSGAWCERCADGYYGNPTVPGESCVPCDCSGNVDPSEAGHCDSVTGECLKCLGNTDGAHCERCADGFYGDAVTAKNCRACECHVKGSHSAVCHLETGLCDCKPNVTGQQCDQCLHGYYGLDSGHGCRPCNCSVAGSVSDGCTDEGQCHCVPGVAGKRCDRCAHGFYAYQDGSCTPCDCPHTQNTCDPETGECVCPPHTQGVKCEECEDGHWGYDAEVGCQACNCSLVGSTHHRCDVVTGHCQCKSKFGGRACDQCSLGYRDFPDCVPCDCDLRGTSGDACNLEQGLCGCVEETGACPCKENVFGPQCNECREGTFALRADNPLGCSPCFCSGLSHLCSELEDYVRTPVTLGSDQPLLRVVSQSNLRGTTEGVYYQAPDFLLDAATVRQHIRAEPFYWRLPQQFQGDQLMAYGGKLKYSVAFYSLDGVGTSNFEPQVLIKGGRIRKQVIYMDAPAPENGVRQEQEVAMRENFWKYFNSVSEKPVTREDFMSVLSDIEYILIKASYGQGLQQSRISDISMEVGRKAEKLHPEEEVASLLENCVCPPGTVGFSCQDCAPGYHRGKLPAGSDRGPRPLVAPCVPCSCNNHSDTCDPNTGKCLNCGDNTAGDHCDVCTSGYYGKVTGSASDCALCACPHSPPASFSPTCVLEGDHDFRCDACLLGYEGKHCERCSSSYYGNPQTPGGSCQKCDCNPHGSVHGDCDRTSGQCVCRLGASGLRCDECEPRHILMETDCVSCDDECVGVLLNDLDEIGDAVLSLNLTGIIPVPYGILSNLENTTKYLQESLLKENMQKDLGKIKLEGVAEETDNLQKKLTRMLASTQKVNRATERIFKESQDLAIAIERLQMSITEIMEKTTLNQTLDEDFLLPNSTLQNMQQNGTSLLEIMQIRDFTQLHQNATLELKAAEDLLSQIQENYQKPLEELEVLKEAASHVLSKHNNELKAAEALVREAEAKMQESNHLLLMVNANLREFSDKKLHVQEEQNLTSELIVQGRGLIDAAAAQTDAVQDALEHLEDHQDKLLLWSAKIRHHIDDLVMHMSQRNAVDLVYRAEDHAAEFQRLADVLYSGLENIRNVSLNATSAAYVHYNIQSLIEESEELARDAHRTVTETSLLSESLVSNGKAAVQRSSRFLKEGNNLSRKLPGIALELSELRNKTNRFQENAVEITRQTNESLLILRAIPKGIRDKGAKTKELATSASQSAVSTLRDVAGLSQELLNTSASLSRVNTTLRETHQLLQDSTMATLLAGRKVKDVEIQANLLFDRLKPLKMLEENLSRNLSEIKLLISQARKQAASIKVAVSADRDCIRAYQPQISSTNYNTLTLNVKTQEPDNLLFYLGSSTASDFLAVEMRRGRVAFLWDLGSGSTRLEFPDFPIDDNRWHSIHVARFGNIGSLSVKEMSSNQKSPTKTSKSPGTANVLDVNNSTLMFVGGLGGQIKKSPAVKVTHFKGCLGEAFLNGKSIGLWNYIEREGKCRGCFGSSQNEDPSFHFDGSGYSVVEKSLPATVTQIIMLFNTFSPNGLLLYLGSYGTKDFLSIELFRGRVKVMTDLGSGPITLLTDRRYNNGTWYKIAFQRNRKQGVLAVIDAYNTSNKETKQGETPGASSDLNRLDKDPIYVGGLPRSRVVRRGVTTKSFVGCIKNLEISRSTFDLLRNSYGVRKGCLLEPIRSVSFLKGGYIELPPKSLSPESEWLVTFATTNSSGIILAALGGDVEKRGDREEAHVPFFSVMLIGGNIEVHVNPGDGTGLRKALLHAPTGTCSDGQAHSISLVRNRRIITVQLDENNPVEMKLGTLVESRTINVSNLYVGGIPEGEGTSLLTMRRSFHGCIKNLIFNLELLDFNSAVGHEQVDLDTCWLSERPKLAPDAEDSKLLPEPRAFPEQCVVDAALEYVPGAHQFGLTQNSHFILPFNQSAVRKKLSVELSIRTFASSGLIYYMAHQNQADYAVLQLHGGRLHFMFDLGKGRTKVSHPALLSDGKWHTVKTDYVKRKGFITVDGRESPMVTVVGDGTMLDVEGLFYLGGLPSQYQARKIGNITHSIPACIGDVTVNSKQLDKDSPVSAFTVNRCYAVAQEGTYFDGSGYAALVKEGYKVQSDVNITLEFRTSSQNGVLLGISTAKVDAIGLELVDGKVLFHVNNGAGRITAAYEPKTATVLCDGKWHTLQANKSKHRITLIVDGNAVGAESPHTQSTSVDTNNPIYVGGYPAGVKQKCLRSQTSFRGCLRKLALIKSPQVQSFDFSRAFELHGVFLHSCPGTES
Assay [9] shares this target. Put plainly: Binding affinity to biotin-labeled human recombinant laminin-1 at 10 ug/ml in pH 5.6 MES buffer by fluorescence microarray method.
For assay [10], the species on record is Homo sapiens. Put plainly: Binding affinity to biotin-labeled human recombinant laminin-2 at 10 ug/ml in 5.6 MES buffer by fluorescence microarray method.
Assay [11] in a line: Binding affinity to biotin-labeled Agaricus bisporus agglutinin in pH 7.4 Tris buffer by fluorescence microarray method.
The subject of assay [12] is Triticum aestivum. Put plainly: Binding affinity to biotin-labeled Wheat germ agglutinin in pH 7.4 Tris buffer by fluorescence microarray method.
The test system of assay [13] is Canavalia ensiformis. Put plainly: Binding affinity to biotin-labeled Canavalia ensiformis agglutinin in pH 7.4 Tris buffer by fluorescence microarray method.
The test system of assay [14] is Arachis hypogaea. Put plainly: Binding affinity to biotin-labeled Arachis hypogaea agglutinin in pH 7.4 Tris buffer by fluorescence microarray method.

Active and inactive are the calls of the source. The calls are words filed in the database; no cut-off is given here. Peptide text beside a SMILES is read from it. * marks the point of attachment. X1 = CC(=O)N[C@H]1[C@H](O[C@H]2[C@@H](O)[C@H](O)[C@@H](CO)O[C@@H]2*)O[C@H](CO)[C@@H](O[C@@H]2O[C@H](CO)[C@H](O)[C@H](O[C@]3(C(=O)O)C[C@H](O)[C@@H](NC(C)=O)[C@H]([C@H](O)[C@H](O)CO)O3)[C@H]2O)[C@@H]1O; X2 = CC(=O)N[C@H]1[C@H](O[C@H]2[C@@H](O)[C@H](O)[C@@H](CO)O[C@@H]2*)O[C@H](CO)[C@@H](O[C@@H]2O[C@H](CO)[C@H](O)[C@H](O)[C@H]2O)[C@@H]1O; GlcNAc(β1-2)αMan = CC(=O)N[C@H]1[C@H](O[C@H]2[C@@H](O)[C@H](O)[C@@H](CO)O[C@@H]2*)O[C@H](CO)[C@@H](O)[C@@H]1O; Hexanoyl(5-oxo) = CC(=O)CCCC(=O)*

`CC[C@H](C)[C@H](NC(=O)[C@H](C)NC(=O)CNC(=O)[C@H](CCCNC(=N)N)NC(=O)[C@@H](NC(=O)CCCC(C)=O)[C@@H](C)O)C(=O)N[C@H](C(=O)N[C@@H](CCC(N)=O)C(=O)N[C@H](C(=O)N1CCC[C@H]1C(=O)N[C@H](C(=O)N[C@@H](CC(C)C)C(=O)NCC(=O)N1CCC[C@H]1C(=O)N[C@H](C(=O)N[C@@H](CCC(N)=O)C(=O)N1CCC[C@H]1C(=O)N[C@H](C(=O)N[C@@H](CCCNC(=N)N)C(=O)N[C@H](C(N)=O)C(C)C)[C@@H](C)O)[C@@H](C)CC)[C@@H](C)O[C@H]1O[C@H](CO)[C@@H](O)[C@H](O)[C@@H]1O[C@@H]1O[C@H](CO)[C@@H](O[C@@H]2O[C@H](CO)[C@H](O)[C@H](O[C@]3(C(=O)O)C[C@H](O)[C@@H](NC(C)=O)[C@H]([C@H](O)[C@H](O)CO)O3)[C@H]2O)[C@H](O)[C@H]1NC(C)=O)[C@@H](C)O[C@H]1O[C@H](CO)[C@@H](O)[C@H](O)[C@@H]1O[C@@H]1O[C@H](CO)[C@@H](O[C@@H]2O[C@H](CO)[C@H](O)[C@H](O[C@]3(C(=O)O)C[C@H](O)[C@@H](NC(C)=O)[C@H]([C@H](O)[C@H](O)CO)O3)[C@H]2O)[C@H](O)[C@H]1NC(C)=O)[C@@H](C)CC` ({Hexanoyl(5-oxo)}-TRGAIIQT(X1)PT(X1)LGPIQPTRV-NH2): the result in assay [1], in assay [2], in [4] and in assay [7] was inactive. Further, the result in [3], in [5], in assay [6], in [8], in [9] and in assay [10] was Active. Moreover, the outcome in [11], in assay [12], in assay [13] and in [14] was Active.
In the case of `CC[C@H](C)[C@H](NC(=O)[C@H](C)NC(=O)CNC(=O)[C@H](CCCNC(=N)N)NC(=O)[C@@H](NC(=O)CCCC(C)=O)[C@@H](C)O)C(=O)N[C@H](C(=O)N[C@@H](CCC(N)=O)C(=O)N[C@H](C(=O)N1CCC[C@H]1C(=O)N[C@H](C(=O)N[C@@H](CC(C)C)C(=O)NCC(=O)N1CCC[C@H]1C(=O)N[C@H](C(=O)N[C@@H](CCC(N)=O)C(=O)N1CCC[C@H]1C(=O)N[C@H](C(=O)N[C@@H](CCCNC(=N)N)C(=O)N[C@H](C(N)=O)C(C)C)[C@@H](C)O[C@H]1O[C@H](CO)[C@@H](O)[C@H](O)[C@@H]1O[C@@H]1O[C@H](CO)[C@@H](O)[C@H](O)[C@H]1NC(C)=O)[C@@H](C)CC)[C@@H](C)O[C@H]1O[C@H](CO)[C@@H](O)[C@H](O)[C@@H]1O[C@@H]1O[C@H](CO)[C@@H](O[C@@H]2O[C@H](CO)[C@H](O)[C@H](O)[C@H]2O)[C@H](O)[C@H]1NC(C)=O)[C@@H](C)O)[C@@H](C)CC` ({Hexanoyl(5-oxo)}-TRGAIIQTPT(X2)LGPIQPT(GlcNAc(β1-2)αMan)RV-NH2), the result in assay [1], in assay [2], in assay [4] and in assay [7] was inactive. Besides, the result in [3], in assay [5], in assay [6], in assay [8], in [9] and in assay [10] was Active. Besides, the outcome in assay [11], in assay [12], in [13] and in [14] was Active.
In the case of `CC[C@H](C)[C@H](NC(=O)[C@H](C)NC(=O)CNC(=O)[C@H](CCCNC(=N)N)NC(=O)[C@@H](NC(=O)CCCC(C)=O)[C@@H](C)O)C(=O)N[C@H](C(=O)N[C@@H](CCC(N)=O)C(=O)N[C@H](C(=O)N1CCC[C@H]1C(=O)N[C@H](C(=O)N[C@@H](CC(C)C)C(=O)NCC(=O)N1CCC[C@H]1C(=O)N[C@H](C(=O)N[C@@H](CCC(N)=O)C(=O)N1CCC[C@H]1C(=O)N[C@H](C(=O)N[C@@H](CCCNC(=N)N)C(=O)N[C@H](C(N)=O)C(C)C)[C@@H](C)O[C@H]1O[C@H](CO)[C@@H](O)[C@H](O)[C@@H]1O[C@@H]1O[C@H](CO)[C@@H](O)[C@H](O)[C@H]1NC(C)=O)[C@@H](C)CC)[C@@H](C)O[C@H]1O[C@H](CO)[C@@H](O)[C@H](O)[C@@H]1O[C@@H]1O[C@H](CO)[C@@H](O)[C@H](O)[C@H]1NC(C)=O)[C@@H](C)O)[C@@H](C)CC` ({Hexanoyl(5-oxo)}-TRGAIIQTPT(GlcNAc(β1-2)αMan)LGPIQPT(GlcNAc(β1-2)αMan)RV-NH2), the result in assay [1], in [2], in assay [4] and in [7] was inactive. Further, the outcome in assay [3], in assay [5], in [6], in assay [8], in assay [9] and in assay [10] was Active. Moreover, the outcome in [11], in [12], in assay [13] and in assay [14] was Active.
`CC[C@H](C)[C@H](NC(=O)[C@H](C)NC(=O)CNC(=O)[C@H](CCCNC(=N)N)NC(=O)[C@@H](NC(=O)CCCC(C)=O)[C@@H](C)O)C(=O)N[C@H](C(=O)N[C@@H](CCC(N)=O)C(=O)N[C@H](C(=O)N1CCC[C@H]1C(=O)N[C@H](C(=O)N[C@@H](CC(C)C)C(=O)NCC(=O)N1CCC[C@H]1C(=O)N[C@H](C(=O)N[C@@H](CCC(N)=O)C(=O)N1CCC[C@H]1C(=O)N[C@H](C(=O)N[C@@H](CCCNC(=N)N)C(=O)N[C@H](C(N)=O)C(C)C)[C@@H](C)O[C@H]1O[C@H](CO)[C@@H](O)[C@H](O)[C@@H]1O[C@@H]1O[C@H](CO)[C@@H](O[C@@H]2O[C@H](CO)[C@H](O)[C@H](O)[C@H]2O)[C@H](O)[C@H]1NC(C)=O)[C@@H](C)CC)[C@@H](C)O[C@H]1O[C@H](CO)[C@@H](O)[C@H](O)[C@@H]1O[C@@H]1O[C@H](CO)[C@@H](O[C@@H]2O[C@H](CO)[C@H](O)[C@H](O)[C@H]2O)[C@H](O)[C@H]1NC(C)=O)[C@@H](C)O[C@H]1O[C@H](CO)[C@@H](O)[C@H](O)[C@@H]1O[C@@H]1O[C@H](CO)[C@@H](O[C@@H]2O[C@H](CO)[C@H](O)[C@H](O)[C@H]2O)[C@H](O)[C@H]1NC(C)=O)[C@@H](C)CC` ({Hexanoyl(5-oxo)}-TRGAIIQT(X2)PT(X2)LGPIQPT(X2)RV-NH2): the outcome in assay [1], in [2], in assay [4] and in [7] was inactive. Also, the outcome in [3], in assay [5], in [6], in assay [8], in [9] and in [10] was Active. The result in [11], in [12], in [13] and in [14] was Active.

The record behind these values is ChEMBL document CHEMBL4387728, “Synthetic glycopeptides reveal specific binding pattern and conformational change at O-mannosylated position of α-dystroglycan by POMGnT1 catalyzed GlcNAc modification” (Bioorg Med Chem, 2019).
